Source: publication PMC9486168, “Protein-protein interaction-based high throughput screening for adenylyl cyclase 1 inhibitors: Design, implementation, and discovery of a novel chemotype” (Frontiers in Pharmacology, 2022)
Read-outs that look alike come from different tables or passages of the source.

What was measured:
[1] = target: T1, AC1-C1b/CaM (Homo sapiens, UniProt P0DP23); test: AC1-C1b/CaM fluorescence polarization (FP) assay; type: binding
T1 construct: made in house; host or cells: E. coli BL21-CodonPlus (DE3)-RIPL

[2] = target: T2, AC8-Nt/CaM (Homo sapiens, UniProt P0DP23); test: AC8-Nt/CaM FP counterscreen assay; type: binding;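 note: fluorescence polarization of AC peptide binding GST-CaM in HEPES buffer with CaCl2, compound preincubated with CaM 30 min, peptide read after 2 h at room temperature in dark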
T2 construct: made in house; host or cells: E. coli BL21-CodonPlus (DE3)-RIPL

[3] = target: T3, AC8-C2b/CaM (Homo sapiens, UniProt P0DP23); test: AC8-C2b/CaM FP counterscreen assay; type: binding;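 note: fluorescence polarization of AC peptide binding to GST-CaM in HEPES buffer with KCl and 50 µM CaCl2, compound preincubated 30 min with GST-CaM, DMSO and calmidazolium as controls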
T3 construct: made in house; host or cells: E. coli BL21-CodonPlus (DE3)-RIPL

[4] = target: T4, AC1/CaM PPI (Homo sapiens, UniProt P0DP23); test: AC1/CaM NanoBiT assay in HEK293T cells; type: cell-based
T4 construct: human AC1 (hAC1) residues 1–1,118 were cloned; The hCaM residues 1–149, residues 1–1,248 of rat AC8 (rAC8); expressed in transfected cells; host or cells: HEK293T, transient transfection

[5] = target: T5, AC8/CaM PPI (Homo sapiens, UniProt P0DP23); test: AC8/CaM NanoBiT assay in HEK293T cells; type: cell-based, rat
T5 construct: confirmed as an AC1/AC8 non-selective hit against full-length AC1- and AC8-CaM in the NanoBiT assay; The hCaM residues 1–149, residues 1–1,248 of rat AC8 (rAC8); expressed in transfected cells; host or cells: HEK293T, transient transfection

[6] = CellTiter-Glo 2.0 cell viability assay; type: cell-based; details: human, HEK293T cells, pH 7.4; at the compound's AC1/CaM NanoBiT IC50 concentration; read-out: % Viable Cells at AC1 IC50;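 note: luminescence read-out after 30 min compound exposure at 37 °C in HEPES-buffered HBSS, scaled to vehicle-treated cells as 100% and cell-free buffer wells as 0%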
[7] = test system: HEK293T cells; test: CellTiter-Glo 2.0 cell viability assay; type: cell-based; details: ∼300 μM;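 note: luminescence read-out after 30 min compound exposure at 37 °C in HEPES-buffered HBSS, scaled to vehicle-treated cells as 100% and cell-free buffer wells as 0%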
[8] = target: T6, AC1 (Homo sapiens, UniProt Q08828); test: cAMP accumulation assay, AC1-HEK Δ3/6 KO cells; type: cell-based
T6 construct: expressed in transfected cells
T6 sequence (Q08828 whole entry): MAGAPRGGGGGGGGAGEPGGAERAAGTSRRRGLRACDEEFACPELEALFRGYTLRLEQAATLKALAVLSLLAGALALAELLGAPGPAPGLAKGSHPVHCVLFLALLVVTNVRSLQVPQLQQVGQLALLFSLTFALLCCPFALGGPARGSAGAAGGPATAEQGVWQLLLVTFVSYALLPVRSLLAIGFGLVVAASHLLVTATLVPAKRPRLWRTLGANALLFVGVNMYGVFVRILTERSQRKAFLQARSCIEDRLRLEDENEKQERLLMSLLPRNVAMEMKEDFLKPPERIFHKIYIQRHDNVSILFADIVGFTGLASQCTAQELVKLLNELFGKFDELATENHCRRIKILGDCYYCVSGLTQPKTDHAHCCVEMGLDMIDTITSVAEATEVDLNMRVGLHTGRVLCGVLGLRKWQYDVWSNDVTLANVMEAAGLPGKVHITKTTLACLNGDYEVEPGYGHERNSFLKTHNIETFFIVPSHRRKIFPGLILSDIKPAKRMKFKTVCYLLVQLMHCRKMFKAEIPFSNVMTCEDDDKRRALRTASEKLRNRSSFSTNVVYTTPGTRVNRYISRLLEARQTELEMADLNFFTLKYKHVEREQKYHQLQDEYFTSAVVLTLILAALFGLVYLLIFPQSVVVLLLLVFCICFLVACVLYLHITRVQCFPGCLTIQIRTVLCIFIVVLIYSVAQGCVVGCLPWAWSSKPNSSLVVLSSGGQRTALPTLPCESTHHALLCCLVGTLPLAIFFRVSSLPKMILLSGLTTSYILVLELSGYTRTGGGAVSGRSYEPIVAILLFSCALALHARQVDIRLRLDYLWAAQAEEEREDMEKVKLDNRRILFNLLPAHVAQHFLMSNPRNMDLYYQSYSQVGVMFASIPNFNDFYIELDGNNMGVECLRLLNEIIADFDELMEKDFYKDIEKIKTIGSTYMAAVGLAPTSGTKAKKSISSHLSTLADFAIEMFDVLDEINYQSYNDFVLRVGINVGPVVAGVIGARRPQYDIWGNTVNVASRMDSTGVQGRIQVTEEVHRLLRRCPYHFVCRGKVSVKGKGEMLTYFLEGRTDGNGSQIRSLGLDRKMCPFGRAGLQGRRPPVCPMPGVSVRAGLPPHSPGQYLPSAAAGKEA
Procedure: Cells were then incubated for 1 h at 37°C and 5% CO2. Cells were then treated with varying concentrations of inhibitors for 30 min, followed by treatment with calcium ionophore A23187 (3 μM) in 500 μM 3-isobutyl-1-methylxanthine (IBMX), a phosphodiesterase inhibitor, for 1 h at RT (Sigma Aldrich, St. Louis, MO). Finally, Cisbio HTRF detection reagents were added and incubated for 1–24 h at RT. Plates were read according to manufacturer’s protocol on an HTRF-compatible plate reader at 620 and 665 nm cAMP concentrations were interpolated from a cAMP standard curve. […] For cytotoxicity assays, compounds were tested at 30 μM and this protocol was used with the exception of detection reagents; CellTiter-Glo 2.0 reagent was used according to manufacturer’s protocol and luminescence was read on the Synergy Neo2 plate reader. Data are normalized to cells treated with vehicle (100%) or 2% tween (0%) and are represented as the percent of vehicle, from the average of three independent experiments (N = 3).

[9] = target: T7, AC8 (Homo sapiens, UniProt P40145); test: cAMP accumulation assay, AC8-HEK Δ3/6 KO cells; type: cell-based; details: CDI analog SAR set, 3 μM A23187; read-out: IC50 (μM) ± SEM AC8
T7 construct: expressed in transfected cells
T7 sequence (P40145 whole entry, species assumed): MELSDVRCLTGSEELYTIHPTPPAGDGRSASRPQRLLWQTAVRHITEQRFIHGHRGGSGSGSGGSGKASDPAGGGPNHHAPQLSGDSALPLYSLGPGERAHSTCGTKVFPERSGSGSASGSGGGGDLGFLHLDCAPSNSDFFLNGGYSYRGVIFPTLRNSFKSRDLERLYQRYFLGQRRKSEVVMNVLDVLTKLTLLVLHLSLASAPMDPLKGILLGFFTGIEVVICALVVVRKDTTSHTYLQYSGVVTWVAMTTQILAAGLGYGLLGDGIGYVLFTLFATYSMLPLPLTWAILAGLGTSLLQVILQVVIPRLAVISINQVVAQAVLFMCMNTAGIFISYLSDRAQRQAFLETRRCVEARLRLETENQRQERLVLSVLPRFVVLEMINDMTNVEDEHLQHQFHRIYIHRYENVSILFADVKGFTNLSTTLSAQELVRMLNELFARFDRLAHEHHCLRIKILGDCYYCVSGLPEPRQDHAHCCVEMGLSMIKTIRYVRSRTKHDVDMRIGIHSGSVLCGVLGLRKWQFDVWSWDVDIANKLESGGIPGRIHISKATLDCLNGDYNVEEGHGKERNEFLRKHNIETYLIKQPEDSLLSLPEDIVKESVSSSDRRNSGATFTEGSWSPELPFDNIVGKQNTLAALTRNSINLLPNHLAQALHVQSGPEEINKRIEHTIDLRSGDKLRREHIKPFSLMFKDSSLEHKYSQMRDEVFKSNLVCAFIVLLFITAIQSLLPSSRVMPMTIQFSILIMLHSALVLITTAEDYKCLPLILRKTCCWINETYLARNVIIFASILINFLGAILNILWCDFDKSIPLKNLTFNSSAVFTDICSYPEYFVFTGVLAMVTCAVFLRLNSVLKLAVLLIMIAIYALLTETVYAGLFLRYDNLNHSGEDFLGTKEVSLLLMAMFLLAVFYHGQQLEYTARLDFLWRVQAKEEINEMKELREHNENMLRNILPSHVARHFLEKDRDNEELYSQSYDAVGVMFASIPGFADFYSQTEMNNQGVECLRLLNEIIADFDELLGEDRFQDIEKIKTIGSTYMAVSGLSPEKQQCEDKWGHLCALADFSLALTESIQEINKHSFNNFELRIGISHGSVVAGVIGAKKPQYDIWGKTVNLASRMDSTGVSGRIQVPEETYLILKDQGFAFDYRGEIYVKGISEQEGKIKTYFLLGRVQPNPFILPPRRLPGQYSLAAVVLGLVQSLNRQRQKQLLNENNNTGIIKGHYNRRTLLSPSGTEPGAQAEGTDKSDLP
Procedure: (§1) Cryopreserved HEK293 cells with AC3 and AC6 knocked out, and stably expressing AC1, AC2, AC5, or AC8 (AC1-HEK Δ3/6 KO, AC2-HEK Δ3/6 KO, AC5-HEK Δ3/6 KO, or AC8-HEK Δ3/6 KO cells, respectively; [Soto-Velasquez et al., 2018]) were plated at 5,000 cells/well. Cells were then incubated for 1 h at 37°C and 5% CO2. Cells were then treated with varying concentrations of inhibitors for 30 min, followed by treatment with calcium ionophore A23187 (3 μM) in 500 μM 3-isobutyl-1-methylxanthine (IBMX), a phosphodiesterase inhibitor, for 1 h at RT (Sigma Aldrich, St. Louis, MO). Finally, Cisbio HTRF detection reagents were added and incubated for 1–24 h at RT. Plates were read according to manufacturer’s protocol on an HTRF-compatible plate reader at 620 and 665 nm cAMP concentrations were interpolated from a cAMP standard curve. […] For cytotoxicity assays, compounds were tested at 30 μM and this protocol was used with the exception of detection reagents; CellTiter-Glo 2.0 reagent was used according to manufacturer’s protocol and luminescence was read on the Synergy Neo2 plate reader. Data are normalized to cells treated with vehicle (100%) or 2% tween (0%) and are represented as the percent of vehicle, from the average of three independent experiments (N = 3).

[10] = target: T8, AC2 (Homo sapiens, UniProt Q08462); test: cAMP accumulation assay, AC2-HEK Δ3/6 KO cells; type: cell-based; details: read-out: % Inhibited at AC2 ± SEM
T8 construct: expressed in transfected cells
T8 sequence (Q08462 whole entry): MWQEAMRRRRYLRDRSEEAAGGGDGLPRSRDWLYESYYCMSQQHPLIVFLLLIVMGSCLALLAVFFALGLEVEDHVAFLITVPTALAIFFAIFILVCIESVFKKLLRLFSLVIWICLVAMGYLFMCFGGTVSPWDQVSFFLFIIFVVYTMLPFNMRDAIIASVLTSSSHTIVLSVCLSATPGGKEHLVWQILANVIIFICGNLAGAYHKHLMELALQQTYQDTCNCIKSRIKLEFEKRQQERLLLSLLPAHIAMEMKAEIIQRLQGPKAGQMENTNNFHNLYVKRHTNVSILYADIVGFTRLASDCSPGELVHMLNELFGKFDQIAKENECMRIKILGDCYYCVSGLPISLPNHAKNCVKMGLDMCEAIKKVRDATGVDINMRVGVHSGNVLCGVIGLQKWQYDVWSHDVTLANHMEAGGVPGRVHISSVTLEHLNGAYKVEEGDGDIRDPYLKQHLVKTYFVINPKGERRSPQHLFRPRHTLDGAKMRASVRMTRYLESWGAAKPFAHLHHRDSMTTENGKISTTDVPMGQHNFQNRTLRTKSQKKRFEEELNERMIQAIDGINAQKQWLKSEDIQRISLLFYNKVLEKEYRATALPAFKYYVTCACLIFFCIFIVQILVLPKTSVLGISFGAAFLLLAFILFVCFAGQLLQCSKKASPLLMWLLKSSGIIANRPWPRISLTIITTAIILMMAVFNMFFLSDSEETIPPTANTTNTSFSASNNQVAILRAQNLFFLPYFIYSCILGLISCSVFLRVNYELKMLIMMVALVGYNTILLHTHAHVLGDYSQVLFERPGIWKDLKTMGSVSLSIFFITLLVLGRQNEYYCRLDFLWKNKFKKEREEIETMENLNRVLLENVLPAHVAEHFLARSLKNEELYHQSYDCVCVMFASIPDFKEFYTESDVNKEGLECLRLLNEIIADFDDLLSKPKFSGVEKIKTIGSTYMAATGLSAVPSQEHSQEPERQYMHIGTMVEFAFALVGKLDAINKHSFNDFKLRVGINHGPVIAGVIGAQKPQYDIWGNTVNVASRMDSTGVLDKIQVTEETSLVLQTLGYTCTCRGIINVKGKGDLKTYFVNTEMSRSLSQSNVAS
Procedure: as §1

[11] = target: T9, AC5 (Homo sapiens, UniProt O95622); test: cAMP accumulation assay, AC5-HEK Δ3/6 KO cells; type: cell-based; details: read-out: % Inhibited at AC5 ± SEM
T9 construct: expressed in transfected cells
T9 sequence (O95622 whole entry, species assumed): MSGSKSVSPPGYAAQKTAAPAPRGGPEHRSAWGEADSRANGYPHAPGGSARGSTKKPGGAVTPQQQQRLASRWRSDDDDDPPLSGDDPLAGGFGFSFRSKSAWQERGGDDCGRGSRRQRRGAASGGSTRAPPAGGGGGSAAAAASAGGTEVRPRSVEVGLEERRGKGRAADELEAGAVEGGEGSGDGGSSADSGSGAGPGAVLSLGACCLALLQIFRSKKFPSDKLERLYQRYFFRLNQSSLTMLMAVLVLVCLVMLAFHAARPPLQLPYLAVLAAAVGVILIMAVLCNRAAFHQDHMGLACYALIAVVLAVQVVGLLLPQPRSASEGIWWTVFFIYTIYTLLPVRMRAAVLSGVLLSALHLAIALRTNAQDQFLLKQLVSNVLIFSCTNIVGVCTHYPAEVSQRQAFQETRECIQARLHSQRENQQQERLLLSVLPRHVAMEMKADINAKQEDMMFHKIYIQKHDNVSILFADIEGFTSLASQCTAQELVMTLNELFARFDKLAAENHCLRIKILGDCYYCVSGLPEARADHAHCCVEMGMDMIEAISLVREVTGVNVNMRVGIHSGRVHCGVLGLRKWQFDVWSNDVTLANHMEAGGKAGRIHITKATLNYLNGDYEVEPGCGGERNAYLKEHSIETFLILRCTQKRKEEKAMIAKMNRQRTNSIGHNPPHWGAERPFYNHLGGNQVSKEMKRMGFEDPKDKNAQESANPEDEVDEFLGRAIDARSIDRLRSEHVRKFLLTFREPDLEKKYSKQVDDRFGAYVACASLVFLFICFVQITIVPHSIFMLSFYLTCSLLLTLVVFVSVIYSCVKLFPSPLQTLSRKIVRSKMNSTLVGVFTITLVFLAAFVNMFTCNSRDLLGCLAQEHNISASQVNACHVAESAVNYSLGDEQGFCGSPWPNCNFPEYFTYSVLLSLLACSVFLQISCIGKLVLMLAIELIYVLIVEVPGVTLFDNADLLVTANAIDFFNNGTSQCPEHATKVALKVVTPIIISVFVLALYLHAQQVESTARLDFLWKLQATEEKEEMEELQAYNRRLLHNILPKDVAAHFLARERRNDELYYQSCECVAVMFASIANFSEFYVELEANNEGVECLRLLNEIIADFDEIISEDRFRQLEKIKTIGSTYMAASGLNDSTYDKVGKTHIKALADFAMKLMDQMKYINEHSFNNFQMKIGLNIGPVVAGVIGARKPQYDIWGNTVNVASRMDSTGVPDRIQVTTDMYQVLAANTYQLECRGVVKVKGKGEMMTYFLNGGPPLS
Procedure: as §1

[12] = Cytotoxicity assay (CellTiter-Glo 2.0) in AC1-HEK Δ3/6 KO cells; type: cell-based; details: human, percent of vehicle, read-out: % Viable Cells at AC1 30 μM
Procedure: as §1

[13] = target: T10, CaM (Homo sapiens, UniProt P0DP23); test: 1H-15N HSQC NMR of 15N-CaM with compound; type: binding; details: 5 equivalent molar excess over 100 μM CaM
T10 construct: 6X-His-GST (N, cleaved yes); made in house; host or cells: E. coli BL21-CodonPlus (DE3)-RIPL in M9 minimal media with 15NH4Cl
Procedure: All NMR samples contained 100 μM ^15N-CaM in 20 mM HEPES pH 7.4, 100 mM KCl, 10 mM CaCl2, 10% D2O, and 5% DMSO. Initial spectra were collected for CaM alone before individual compounds were titrated to observe chemical shift perturbations. All spectra were acquired at 298 K using a 600 MHz Bruker Avance NEO NMR spectrometer with a triple resonance gradient cryoprobe. NMR spectra were processed using NMRPipe and analyzed using NMRFAM-SPARKY.

[14] = Cheng-Prusoff from FP IC50 and Kd, n/i given where none
[15] = ratio >1: more potent in AC1/CaM FP

IC50 ([1]; 100 nM AC1-C1b, 100 nM GST-CaM, 95% CI in brackets): 22.1 µM
Ki ([1]; Cheng-Prusoff from FP IC50 and Kd): 5.2 µM
AC1-CaM FP % inhib ([1]; relative to 100 μM CDZ (100% inhibition), highest concentration tested): 58%
Ki (μM) AC8 NT [2, 14]: n/i
Ki ratio (AC8 NT/AC1) [2, 15]: AC1 Selective
Ki (μM) AC8 C2b [3, 14]: n/i
Ki ratio (AC8-C2b/AC1) [3, 15]: AC1 Selective
IC50 ([4]; HEK293T, thapsigargin-stimulated, AUC, read-out: Nanobit: AC1-CaM IC50 (μM ± SEM)): 26.1 ± 1.17 µM
inhibition of AC1-CaM interaction in NanoBiT ([4]; full-length proteins): 100%
IC50 ([5]; HEK293T, thapsigargin-stimulated, AUC, read-out: Nanobit: AC8-CaM IC50 (μM ± SEM)): 33.3 ± 1.18 µM
inhibition of AC8-CaM interaction in NanoBiT ([5]; full-length proteins): 100%
IC50 ([8]; CDI analog SAR set, 3 μM A23187, read-out: IC50 (μM) ± SEM AC1): 4.36 ± 0.32 µM
inhibition of AC1 activity ([8]; CDI analog set, maximal inhibition of A23187 response): 100%
inhibition of AC1 activity (efficacy) ([8]; initial characterization of hits, data not shown): ~75%
IC50 ([8]; initial examination, 10,000 cells per well, 3 μM A23187, 1 h RT, read-out: AC1 IC50 ± SEM): 4.88 ± 2.14 µM
IC50 [9]: 3.9 ± 1.83 µM
inhibition at 30 µM [10]: 59 ± 14%
inhibition at 30 µM [11]: 47 ± 10%
Structure (SMILES): CCc1cc(C(c2cccs2)N2CCN(C)CC2)c(NC(=O)c2ccco2)s1 (stereo not shown) [Compound 15]
viability at 30 min [6]: 100%
cell viability at ∼300 μM [7]: decrease in cell viability
viability at 30 min, 30 μM [12]: 43%
chemical shift perturbations (CSP) of 15N-CaM [13]: several peaks were broadened by intermediate exchange and disappeared
